Molecules are shown by their SMILES. ≈ marks a conversion by molar mass, not a printed value.

From ChEMBL document CHEMBL4400517, “Marine natural products as potential anti-tubercular agents” (Eur J Med Chem, 2019) come the findings set out here.

The target in one test is T1, Phosphotyrosine protein phosphatase (Mycobacterium tuberculosis) (UniProt A0A045ISB3).
T1 sequence (whole entry): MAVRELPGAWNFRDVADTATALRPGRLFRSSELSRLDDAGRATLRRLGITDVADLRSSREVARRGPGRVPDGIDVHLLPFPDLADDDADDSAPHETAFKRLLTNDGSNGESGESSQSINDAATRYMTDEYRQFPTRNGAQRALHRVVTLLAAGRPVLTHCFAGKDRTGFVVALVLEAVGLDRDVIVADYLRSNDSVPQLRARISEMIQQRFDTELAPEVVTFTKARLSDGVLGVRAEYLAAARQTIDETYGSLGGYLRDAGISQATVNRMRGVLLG
The test can be described thus: Inhibition of Mycobacterium tuberculosis Protein Tyrosine Phosphatase B at 100 uM relative to control.
On to `CCCNC1=CC(=O)c2c(O)c3c(c(O)c2C1=O)C[C@](C)(O)[C@H](O)[C@H]3O`, for which the inhibition – broadly, the percentage by which the read-out fell short of the control – was 17.5 to 48.8%.
Same read-out and setting: as for `COc1cc(O)c2c(c1O)C(=O)C1=C(C[C@@H](O)[C@@](C)(O)C1)C2=O`, the figure is 17.5 to 48.8%.
`COC1=CC(=O)c2c(O)c3c(c(O)c2C1=O)C[C@]1(C)OCO[C@@H]1[C@H]3O` yielded an inhibition of 17.5 to 48.8%.
The same measure, in the same setting: in the case of `COC1=CC(=O)c2c(cc3c(c2O)C[C@@H](O)[C@@](C)(O)C3)C1=O` it was 17.5 to 48.8%; in that of `CNC1=CC(=O)c2c(O)c3c(c(O)c2C1=O)C[C@](C)(O)[C@H](O)C3`, 9.7%.
For the compound `CCCCCCSC1=C(SCCCCCC)C(=O)c2c(O)c3c(c(O)c2C1=O)C[C@](C)(O)[C@H](O)[C@H]3O`, the inhibition is 56.2%.
For the compound `CNC1=CC(=O)c2c(O)c3c(c(O)c2C1=O)C[C@](C)(O)[C@H](O)[C@H]3O`, the inhibition fell in the range of 17.5 to 48.8%.
In turn, `COC1=CC(=O)c2c(O)c3c(c(O)c2C1=O)C[C@]1(C)OC(C=C(C)C)O[C@@H]1[C@H]3O` (stereo partly drawn) returned an inhibition of 17.5 to 48.8%.
Compound `COC1=CC(=O)c2c(O)c3c(c(O)c2C1=O)C[C@]1(C)OC(C)(C)O[C@@H]1[C@H]3O` had an inhibition of 17.5 to 48.8%.
Still for that read-out and setting: as for `COc1cc(O)c2c(c1O)C(=O)c1cc(C)ccc1C2=O`, the figure is 17.5 to 48.8%.
For `COC1=CC(=O)c2c(O)c3c(c(O)c2C1=O)C[C@](C)(O)[C@H](O)[C@H]3O`, the inhibition was determined as 37%.
Take `COC1=CC(=O)c2c(O)c3c(c(O)c2C1=O)C[C@]1(C)OC(=O)O[C@@H]1[C@H]3O`: the inhibition was in the range of 17.5 to 48.8%.

For a further test, the system named is Mycobacterium tuberculosis. The test can be described thus: Antimycobacterial activity against Mycobacterium tuberculosis H37Rv assessed as inhibition of mycobacterial growth at 12.5 ug/ml relative to control. The format is functional.
Consider `CC1(C)CCC[C@]2(C)[C@H]3C=C4C=C(O)C(=O)C=C4O[C@@]3(C)CC[C@@H]12` [PUUPEHENONE], for which the inhibition at 12.5 µg/mL was found to be 99%.
As for `CC1(C)CCC[C@]2(C)[C@H]3[C@H](C#N)c4cc(O)c(O)cc4O[C@@]3(C)CC[C@@H]12`, the inhibition at 12.5 µg/mL came to 96%.
On to `CC1(C)CCC[C@]2(C)[C@H]3C(C#N)=C4C=C(O)C(=O)C=C4O[C@@]3(C)CC[C@@H]12`, for which the inhibition at 12.5 µg/mL came out at 90%.
Regarding `CC(C)=CCC[C@H](C)[C@H]1CC[C@@H](C)c2c1ccc1ncoc21`, the inhibition at 12.5 µg/mL stood at 66%.

Another test concerns Mycobacterium tuberculosis. The test can be described thus: Antimycobacterial activity against Mycobacterium tuberculosis. Type of test: functional.
`COC1=C(Br)C(O)[C@@]2(C=C1Br)CC(C(=O)NCCCCNC(=O)C1=NO[C@]3(C=C(Br)C(OC)=C(Br)C3O)C1)=NO2` (stereo partly drawn): 7.99 µM (≈ 6.54 µg/mL) was the least that counted as inhibitory (MIC).
`CSC1=CC2=C(C(=O)c3ccc([C@H]4C[C@@H](O)[C@H](O)[C@@H](C)O4)c(O)c3C2=O)[C@@]2(O)C(=O)C[C@](C)(O)C[C@@]12O`: the MIC (in general, the lowest concentration that inhibits growth of the organism) was 5.88 µM (≈ 3.13 µg/mL).
`COC(=O)c1c(C)cc2c(c1O)[C@@]1(O)C(=O)c3cc4c(c(O)c3C(=O)[C@@]1(OC)CC2)C(=O)C=C(N[C@H]1O[C@@H](C)[C@H](O)[C@@H](O)[C@H]1OC)C4=O` yielded a minimal inhibitory concentration (MIC) of 1.5 µM (≈ 1 µg/mL).
On the same count and under the same terms, in the case of `CSC1=CC2=C(C(=O)c3ccc([C@H]4C[C@@H](O)[C@H](O)[C@@H](C)O4)c(O)c3C2=O)[C@@]2(O)C(=O)C=C(C)C[C@@]12O` it was 24.3 µM (≈ 12.5 µg/mL); in that of `Cc1cc(O)c2c3c(ccc2c1)C(=O)c1c(ccc([C@H]2C[C@@H](O)[C@H](O)[C@@H](C)O2)c1O)C3=O`, 14.4 µM (≈ 6.26 µg/mL).
On to `CSC1=CC2=C(C(=O)c3ccc([C@H]4C[C@@H](O)[C@H](O[C@H]5CC[C@H](O[C@H]6C[C@@H](O)[C@H](O)[C@@H](C)O6)[C@H](C)O5)[C@@H](C)O4)c(O)c3C2=O)[C@@]2(O[C@H]3CC[C@H](O)[C@H](C)O3)C(=O)C[C@](C)(O)C[C@@]12O`, for which the minimal inhibitory concentration (MIC) is 14 µM (≈ 12.5 µg/mL).

Another test deals with Mycobacterium tuberculosis. The test can be described thus: Antimycobacterial activity against Mycobacterium tuberculosis H37Rv. The format is functional, organism-based.
On to `COC(=O)N[C@H]1[C@@H](C)O[C@@H](O[C@H]2C/C=C(\C)[C@@H]3C=C[C@@H]4[C@@H](O[C@@H]5C[C@@H](O[C@@H]6C[C@@H](O)[C@@H](O[C@H]7C[C@@H](C)[C@H](OC)[C@H](O)C7)[C@H](C)O6)[C@@H](O)[C@H](C)O5)[C@@H](C)C[C@H](C)[C@H]4[C@]3(C)C(=O)C3=C(O)[C@@]4(C[C@@H](C)C(COC(C)=O)=C[C@H]4/C=C/2C)OC3=O)C[C@]1(C)N`, for which the minimal inhibitory concentration (MIC) is 26.7 µM (≈ 32 µg/mL).
With `O=C1CCCN2[C@@H](CC1)C[C@]13CN4CCCC/C=C\CC[C@](O)(C=C(c5nccc6c5[nH]c5c(O)cccc56)[C@@H]1CC4)[C@H]23`, the MIC is 0.69 µM (≈ 0.401 µg/mL).
With `CC(=O)O[C@H]1C[C@H]2[C@]3(C)CC[C@H]4C(C)(C)CCC[C@]4(C)[C@H]3C[C@@H](O)[C@]2(C)[C@@H]2C1=CC[C@H]2OC(C)=O`, it took 2.67 µM to reach half-maximal inhibition (IC50) and it took 12.8 µM (≈ 6.23 µg/mL) to inhibit growth (MIC).
Compound `COC(=O)N[C@H]1[C@@H](C)O[C@@H](O[C@H]2C/C=C(\C)[C@@H]3C=C[C@@H]4[C@@H](O[C@@H]5C[C@@H](O[C@@H]6C[C@@H](O)[C@@H](O[C@H]7C[C@@H](C)[C@H](OC)[C@H](O)C7)[C@H](C)O6)[C@@H](O)[C@H](C)O5)[C@@H](C)C[C@H](C)[C@H]4[C@]3(C)C(=O)C3=C(O)[C@@]4(C[C@@H](C)C(CO)=C[C@H]4/C=C/2C)OC3=O)C[C@]1(C)[N+](=O)[O-]` returned a minimal inhibitory concentration (MIC) of 13.5 µM (≈ 16 µg/mL).
Same read-out and setting: as for `C=C(CC[C@@H](C)[C@H]1CC[C@H]2[C@@H]3C(C=O)=C4C[C@@H](O)CC[C@]4(C)[C@H]3CC[C@]12C)C(C)C` [PARGUESTEROL A], the figure is 18.9 µM (≈ 7.81 µg/mL); as for `CC(=O)O[C@H]1C[C@@]2(C)[C@@H](CC[C@H]3[C@@]4(C)C=CC(=O)[C@@H](C)C4[C@H](OC(C)=O)C(=O)[C@@]32C)/C1=C(\CCC=C(C)C)C(=O)O` (stereo partly drawn), 0.89 µM (≈ 0.506 µg/mL).
Take `CO[C@H]1/C=C/O[C@@]2(C)Oc3c(C)c(O)c4c(O)c(c(/C=N/N5CCN(C)CC5)c(O)c4c3C2=O)NC(=O)/C(C)=C\C=C\[C@H](C)[C@H](O)[C@@H](C)[C@@H](O)[C@@H](C)[C@H](OC(C)=O)[C@@H]1C` [RIFAMPIN]: the half-inhibitory concentration (IC50) (commonly the concentration that gives 50% inhibition) is 0.55 µM.
`COC(=O)N[C@H]1[C@@H](C)O[C@@H](O[C@H]2C/C=C(\C)[C@@H]3C=C[C@@H]4[C@@H](O[C@@H]5C[C@@H](O[C@@H]6C[C@@H](O)[C@@H](O[C@H]7C[C@@H](C)[C@H](OC)[C@H](O)C7)[C@H](C)O6)[C@@H](O)[C@H](C)O5)[C@@H](C)C[C@H](C)[C@H]4[C@]3(C)C(=O)C3=C(O)[C@@]4(C[C@@H](C)C(CO)=C[C@H]4/C=C/2C)OC3=O)C[C@]1(C)N` gave a minimum inhibitory concentration (MIC) of 27.7 µM (≈ 32 µg/mL).
In turn, `C=C(CC[C@@H](C)[C@H]1CC[C@H]2[C@@H]3CC=C4C[C@@H](O)CC[C@]4(C)[C@H]3CC[C@]12C)C(C)C` registered a minimal inhibitory concentration (MIC) of 302 µM (≈ 120 µg/mL).
On the same count and under the same terms, as for `O[C@]12C=C(c3nccc4c3[nH]c3ccccc34)[C@@H]3CCN(CCCC/C=C\CC1)C[C@@]31C[C@@H]3/C=C\CCCCN3[C@H]12` [MANZAMINE A], the figure is 1.64 µM (≈ 0.9 µg/mL).
`COC(=O)/C1=C/c2c([nH]c3ccccc23)/C(C(=O)OC)=C\c2c1[nH]c1ccccc21` [CAULERPIN] registered a half-inhibitory concentration (IC50) of 0.24 µM.
Regarding `O=C1CCCN2[C@@H](CC1)C[C@]13CN4CCCC/C=C\CC[C@](O)(C=C(c5nccc6c5[nH]c5ccccc56)[C@@H]1CC4)[C@H]23`, the MIC was found to be 6.74 µM (≈ 3.81 µg/mL).
In the case of `C=C(CC[C@@H](C)[C@H]1CC[C@H]2[C@@H]3[C@@H](C=O)[C@]4(O)C[C@@H](O)CC[C@]4(C)[C@H]3CC[C@]12C)C(C)C`, it took 26.1 µM (≈ 11.2 µg/mL) to inhibit growth (MIC).
`O=C1CCCN2[C@@H](CC1)C[C@]13CN4CCCC/C=C\CC[C@](O)(C=C(c5nccc6c5[nH]c5ccc(O)cc56)[C@@H]1CC4)[C@H]23` displayed an MIC of 52.1 µM (≈ 30.2 µg/mL).
On to `O=CC1=C[C@@]2(O)CC/C=C\CCCCN3CC[C@@H]1[C@]1(C[C@@H]4/C=C\CCCCN4[C@H]12)C3` [IRCINAL], for which the MIC turned out to be 73.7 µM (≈ 30.2 µg/mL).
